Laboratory results published in ChEMBL document CHEMBL4811228, “Design, Synthesis, and Activity Evaluation of Novel Acyclic Nucleosides as Potential Anticancer Agents In Vitro and In Vivo” (J Med Chem, 2021).
Calls of active or inactive are those of the source. No cut-off for these calls is given here.

Legend:
[1] = test system: SW480; experiment: Induction of mitochondrial membrane potential loss in human SW480 cells assessed as cells with high MMP emitting red fluorescence at 4 uM incubated for 24 hrs by JC-1 staining based flow cytometry (reference value: 64.2%); type: functional
[2] = test system: SW480; experiment: Induction of mitochondrial membrane potential loss in human SW480 cells assessed as cells with high MMP emitting red fluorescence at 8 uM incubated for 24 hrs by JC-1 staining based flow cytometry (reference value: 64.2%); type: functional
[3] = test system: SW480; experiment: Induction of apoptosis in human SW480 cells assessed as necrotic cells at 2 uM incubated for 48 hrs by Annexin V-FITC/PI staining based flow cytometry (reference value: 2.9%); type: functional
[4] = test system: SW480; experiment: Induction of apoptosis in human SW480 cells assessed as necrotic cells at 16 uM incubated for 48 hrs by Annexin V-FITC/PI staining based flow cytometry (reference value: 2.9%); type: functional
[5] = test system: SW480; experiment: Inhibition of colony formation in human SW480 cells at >=16 uM incubated for 48 hrs followed by culture medium replenishment for every 72 hrs and measured after 14 days by crystal violet staining based analysis; type: functional; settings: dose microM >=16; time 14 day
[6] = test system: SW480; experiment: Antitumor activity against human SW480 cells xenografted in ip dosed BALB/c mouse assessed as reduction in tumor weight administered every 2 days for 12 days; type: functional, organism-based; settings: dose 25-50 mg/kg, time 12.0 day
[7] = test system: SW480; experiment: Induction of apoptosis in human SW480 cells assessed as early apoptotic cells at 2 uM incubated for 48 hrs by Annexin V-FITC/PI staining based flow cytometry (reference value: 1.87%); type: functional
[8] = test system: SW480; experiment: Induction of apoptosis in human SW480 cells assessed as reduction in Bcl-xl protein expression at 2 to 16 uM incubated for 48 hrs by western blot analysis; type: functional, cell-based; settings: dose 2-16 µM
[9] = test system: SW480; experiment: Induction of apoptosis in human SW480 cells assessed as late apoptotic cells at 8 uM incubated for 48 hrs by Annexin V-FITC/PI staining based flow cytometry (reference value: 4.67%); type: functional
[10] = test system: SW480; experiment: Induction of apoptosis in human SW480 cells assessed as early apoptotic cells at 4 uM incubated for 48 hrs by Annexin V-FITC/PI staining based flow cytometry (reference value: 1.87%); type: functional
[11] = test system: HCT-116; experiment: Antiproliferative activity against human HCT-116 cells assessed as reduction in cell viability incubated for 48 hrs by MTT assay; type: functional, cell-based; settings: HCT-116, 48 h
[12] = Acute toxicity in ip dosed BALB/c mouse administered per 4 hrs for 4 times and measured everyday for 14 days; type: organism-based; settings: in vivo, time 14 day
[13] = test system: SW480; experiment: Induction of mitochondrial membrane potential loss in human SW480 cells assessed as increase in cells with low MMP emitting green fluorescence at 2 to 8 uM incubated for 24 hrs by JC-1 staining based fluorescence microscopy; type: functional, cell-based; settings: dose 2-8 µM
[14] = test system: SW480; experiment: Inhibition of colony formation in human SW480 cells at 2 to 8 uM incubated for 48 hrs followed by culture medium replenishment for every 72 hrs and measured after 14 days by crystal violet staining based analysis; type: functional, cell-based; settings: dose 2-8 µM, time 14.0 day
[15] = test system: SW480; experiment: Induction of apoptosis in human SW480 cells assessed as viable cells at 2 uM incubated for 48 hrs by Annexin V-FITC/PI staining based flow cytometry (reference value: 90.56%); type: functional; settings: read-out: Activity
[16] = test system: SW480; experiment: Induction of mitochondrial membrane potential loss in human SW480 cells assessed as cells with low MMP emitting green fluorescence at 4 uM incubated for 24 hrs by JC-1 staining based flow cytometry (reference value: 17.96%); type: functional
[17] = test system: SW480; experiment: Induction of mitochondrial membrane potential loss in human SW480 cells assessed as cells with low MMP emitting green fluorescence at 2 uM incubated for 24 hrs by JC-1 staining based flow cytometry (reference value: 17.96%); type: functional
[18] = test system: SW480; experiment: Induction of apoptosis in human SW480 cells assessed as viable cells at 4 uM incubated for 48 hrs by Annexin V-FITC/PI staining based flow cytometry (reference value: 90.56%); type: functional; settings: read-out: Activity
[19] = test system: SW480; experiment: Induction of apoptosis in human SW480 cells assessed as viable cells at 8 uM incubated for 48 hrs by Annexin V-FITC/PI staining based flow cytometry (reference value: 90.56%); type: functional; settings: read-out: Activity
[20] = test system: HCT-116; experiment: Potency index, ratio of 5-FU IC50 to test compound IC50 for antiproliferative activity against human HCT-116 cells; type: functional
[21] = test system: SW480; experiment: Induction of apoptosis in human SW480 cells assessed as late apoptotic cells at 16 uM incubated for 48 hrs by Annexin V-FITC/PI staining based flow cytometry (reference value: 4.67%); type: functional
[22] = test system: SW480; experiment: Antitumor activity against human SW480 cells xenografted in ip dosed BALB/c mouse assessed as reduction in tumor volume administered every 2 days for 12 days; type: functional, organism-based; settings: dose 25-50 mg/kg, time 12.0 day
[23] = test system: SW480; experiment: Potency index, ratio of 5-FU IC50 to test compound IC50 for antiproliferative activity against human SW480 cells; type: functional
[24] = Acute toxicity in BALB/c mouse assessed as animal survival at 200 mg/kg, ip administered per 4 hrs for 4 times and measured everyday for 14 days (Rb =100%); type: organism-based; settings: in vivo, time 14 day
[25] = Acute toxicity in BALB/c mouse assessed as animal survival at 300 mg/kg, ip administered per 4 hrs for 4 times and measured everyday for 14 days (reference value: 100%); type: organism-based; settings: in vivo, time 14 day
[26] = test system: SW480; experiment: Induction of apoptosis in human SW480 cells assessed as late apoptotic cells at 4 uM incubated for 48 hrs by Annexin V-FITC/PI staining based flow cytometry (reference value: 4.67%); type: functional
[27] = test system: HCT-116; experiment: Inhibition of colony formation in human HCT-116 cells at >=16 uM incubated for 48 hrs followed by culture medium replenishment for every 72 hrs and measured after 14 days by crystal violet staining based analysis; type: functional; settings: dose microM >=16; time 14 day
[28] = test system: SW480; experiment: Induction of apoptosis in human SW480 cells assessed as necrotic cells at 32 uM incubated for 48 hrs by Annexin V-FITC/PI staining based flow cytometry (reference value: 2.9%); type: functional
[29] = test system: SW480; experiment: Induction of apoptosis in human SW480 cells assessed as early apoptotic cells at 16 uM incubated for 48 hrs by Annexin V-FITC/PI staining based flow cytometry (reference value: 1.87%); type: functional
[30] = test system: SW480; experiment: Induction of apoptosis in human SW480 cells assessed as increase in cleaved PARP protein expression at 2 to 16 uM incubated for 48 hrs by western blot analysis; type: functional, cell-based; settings: dose 2-16 µM
[31] = test system: SW480; experiment: Induction of mitochondrial membrane potential loss in human SW480 cells assessed as cells with high MMP emitting red fluorescence at 2 uM incubated for 24 hrs by JC-1 staining based flow cytometry (reference value: 64.2%); type: functional
[32] = test system: SW480; experiment: Induction of apoptosis in human SW480 cells assessed as increase in p53 protein expression at 2 to 16 uM incubated for 48 hrs by western blot analysis; type: functional, cell-based; settings: dose 2-16 µM
[33] = test system: SW480; experiment: Induction of apoptosis in human SW480 cells assessed as late apoptotic cells at 32 uM incubated for 48 hrs by Annexin V-FITC/PI staining based flow cytometry (reference value: 4.67%); type: functional
[34] = test system: SW480; experiment: Induction of apoptosis in human SW480 cells assessed as viable cells at 32 uM incubated for 48 hrs by Annexin V-FITC/PI staining based flow cytometry (reference value: 90.56%); type: functional; settings: read-out: Activity

With CCCCCCCCCC(CCO)n1cnc2c(Cl)ncnc21 (racemic) the Activity [1] was 33.67%, the Activity [2] was 31.56% and the Activity [3] was 9.2%. The Activity [4] was 11.01%, the “inhibition (INH)” value [5] was 100% and the Activity [6] was “Dose-Dependent Effect”. For the same molecule, the Activity [7] was 5.2%, the Activity [8] was “Active” and the Activity [9] was 15.47%. For the same molecule, the Activity [10] was 11.67%, the IC50 [11] was 0.89 µM and the LD50 at 336 h [12] was 220 mg/kg. The Activity [13] was “Active”, the inhibition [14] was “Active” and the viability at 2 µM [15] was 73.9%. The Activity [16] was 33.02%, the Activity [17] was 28.88% and the viability at 4 µM [18] was 71.5%. The viability at 8 µM [19] was 56.5%, the “Ratio IC50” value [20] was 10 and the Activity [21] was 20.5%. The Activity [22] was “Dose-Dependent Effect”, the “Ratio IC50” value [23] was 10 and the survival at 336 h [24] was 70%. For the same molecule, the survival at 336 h [25] was 0%, the Activity [26] was 9.11% and the “inhibition (INH)” value [27] was 100%. The Activity [28] was 3.89%, the Activity [29] was 24.5% and the Activity [30] was “Active”. The Activity [31] was 47.58%, the Activity [32] was “Active” and the Activity [33] was 13.76%. The viability at 32 µM [34] was 26.8%.
